From patent US20150306086A1, “MODULATING CERTAIN TYROSINE KINASES” (Tesaro, Inc., priority 2011, published 2015)
Where two headings read alike, the source gives them in different places. Values belong to the compound of their own block, whether it stands above or below them.

Assays:
[1] = biological target: T1, cytoplasmic domain (amino acids 1058-1620) of wild-type human ALK (Homo sapiens, UniProt Q9UM73); experiment: ALK inhibition in enzyme assay (Lance TR-FRET); type: biochemical
T1 construct: cytoplasmic domain (amino acids 1058-1620) of wild-type human ALK; GST (N); made in house; host or cells: SF9 cells

EGFR(T790M) = EGFR(T790M) (Homo sapiens, UniProt P00533, T790M); experiment: Off-chip mobility shift kinase assay, EGFR [T790M]; type: biochemical; details: Srctide 1000 nM, ATP 1 μM, Mg + Mn 5 + 1 mM
FAK = FAK (Homo sapiens, UniProt Q05397); experiment: Off-chip mobility shift kinase assay, FAK; type: biochemical; details: Blk/Lyntide 1000 nM, ATP 25 μM, Mg 5 mM
FLT1 = FLT1 (Homo sapiens, UniProt P17948); experiment: Off-chip mobility shift kinase assay, FLT1; type: biochemical; details: CSKtide 1000 nM, ATP 150 μM, Mg 5 mM, reaction time 5 hours
FLT4 = FLT4 (Homo sapiens, UniProt P35916); experiment: Off-chip mobility shift kinase assay, FLT4; type: biochemical; details: CSKtide 1000 nM, ATP 75 μM, Mg 5 mM
KDR = KDR (Homo sapiens, UniProt P35968); experiment: Off-chip mobility shift kinase assay, KDR; type: biochemical; details: CSKtide 1000 nM, ATP 75 μM, Mg 5 mM
RET = RET (Homo sapiens, UniProt P07949); experiment: Off-chip mobility shift kinase assay, RET; type: biochemical; details: CSKtide 1000 nM, ATP 10 μM, Mg 5 mM
RET(G691S) = RET(G691S) (Homo sapiens, UniProt P07949, G691S); experiment: Off-chip mobility shift kinase assay, RET [G691S]; type: biochemical; details: CSKtide 1000 nM, ATP 10 μM, Mg 5 mM
RET(M918T) = RET(M918T) (Homo sapiens, UniProt P07949, M918T); experiment: Off-chip mobility shift kinase assay, RET [M918T]; type: biochemical; details: CSKtide 1000 nM, ATP 5 μM, Mg 5 mM
RET(S 891A) = RET(S 891A) (Homo sapiens, UniProt P07949, S891A); experiment: Off-chip mobility shift kinase assay, RET [S891A]; type: biochemical; details: CSKtide 1000 nM, ATP 10 μM, Mg 5 mM
RET(Y791F) = RET(Y791F) (Homo sapiens, UniProt P07949, Y791F); experiment: Off-chip mobility shift kinase assay, RET [Y791F]; type: biochemical; details: CSKtide 1000 nM, ATP 25 μM, Mg 5 mM
TRKA = TRKA (Homo sapiens, UniProt P04629); experiment: Off-chip mobility shift kinase assay, TRKA; type: biochemical; details: CSKtide 1000 nM, ATP 75 μM, Mg 5 mM
TRKB = TRKB (Homo sapiens, UniProt Q16620); experiment: Off-chip mobility shift kinase assay, TRKB; type: biochemical; details: Srctide 1000 nM, ATP 75 μM, Mg 5 mM
TRKC = TRKC (Homo sapiens, UniProt Q16288); experiment: Off-chip mobility shift kinase assay, TRKC; type: biochemical; details: Srctide 1000 nM, ATP 50 μM, Mg 5 mM
FLT3 = biological target: T2, FLT3 (Homo sapiens, UniProt P36888); experiment: Off-chip mobility shift kinase assay, FLT3; type: biochemical; details: Srctide 1000 nM, ATP 100 μM, Mg 5 mM
T2 sequence (P36888 27-993): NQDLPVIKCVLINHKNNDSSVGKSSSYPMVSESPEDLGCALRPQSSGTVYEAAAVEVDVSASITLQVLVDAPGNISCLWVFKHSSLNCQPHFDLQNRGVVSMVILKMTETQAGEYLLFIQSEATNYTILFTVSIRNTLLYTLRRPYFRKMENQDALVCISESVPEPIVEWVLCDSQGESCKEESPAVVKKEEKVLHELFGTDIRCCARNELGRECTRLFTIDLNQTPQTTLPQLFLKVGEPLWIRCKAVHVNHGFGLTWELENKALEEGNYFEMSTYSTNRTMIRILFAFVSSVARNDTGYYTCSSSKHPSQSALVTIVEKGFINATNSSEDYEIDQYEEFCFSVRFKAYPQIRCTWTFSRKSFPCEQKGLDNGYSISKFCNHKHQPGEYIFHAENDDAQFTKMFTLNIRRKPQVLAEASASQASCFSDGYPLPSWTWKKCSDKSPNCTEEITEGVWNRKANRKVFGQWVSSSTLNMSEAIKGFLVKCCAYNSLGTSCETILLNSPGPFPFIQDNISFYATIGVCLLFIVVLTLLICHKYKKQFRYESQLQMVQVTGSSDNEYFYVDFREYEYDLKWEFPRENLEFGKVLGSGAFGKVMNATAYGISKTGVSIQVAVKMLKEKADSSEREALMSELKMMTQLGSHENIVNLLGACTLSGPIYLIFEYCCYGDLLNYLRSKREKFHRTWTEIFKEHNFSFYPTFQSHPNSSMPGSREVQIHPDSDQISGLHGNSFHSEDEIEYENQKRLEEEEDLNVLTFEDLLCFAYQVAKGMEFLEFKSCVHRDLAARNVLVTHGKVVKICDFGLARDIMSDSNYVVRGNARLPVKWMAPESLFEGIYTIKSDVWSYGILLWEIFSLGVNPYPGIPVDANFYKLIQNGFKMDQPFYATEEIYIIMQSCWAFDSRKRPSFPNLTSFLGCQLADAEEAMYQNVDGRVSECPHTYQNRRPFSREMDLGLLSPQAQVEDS

NGF = biological target: T3, NGF (Homo sapiens, UniProt P01138); details: osteoarthritis pain study, cited from earlier work
T3 construct: host or cells: patients (endogenous NGF)

Compound: CC(=O)[C@H]1CC[C@@H](n2/c(=N/C(=O)c3cccc(F)c3)[nH]c3ccc(CO)cc32)CC1 [Example 70]
- IC50 [1]: 1000 to 5000 nM

Compound: C=CCNS(=O)(=O)c1cccc(C(=O)/N=c2\[nH]c3cnc(OCCN4CCC(C(C)(C)O)CC4)cc3n2[C@H]2CC[C@H](C(=O)NC(C)C)CC2)c1 [Example 131]
- IC50 [1]: 100 to 1000 nM

Compound: CC(C)NC(=O)[C@H]1CC[C@@H](n2/c(=N/C(=O)c3ccc(F)c(C#N)c3)[nH]c3ccc(CN4CCC(C(C)(C)O)CC4)cc32)CC1 [Example 146]
- IC50 [1]: < 50 nM

Compound: CC(C)NC(=O)[C@H]1CC[C@@H](N2c3cc(O)ccc3NC2NC(=O)c2ccc(F)cc2)CC1 (stereo partly drawn) [Example 154]
- IC50 [1]: < 50 nM

Compound: CC(=O)N[C@H]1CC[C@H](n2/c(=N/C(=O)c3cccc(F)c3)[nH]c3ccc(CN4CCC(C(C)(C)O)CC4)cc32)CC1 [Example 229]
- IC50 [1]: 50 to 100 nM

Compound: CC(C)NC(=O)[C@H]1CC[C@@H](n2/c(=N/C(=O)c3ccc(F)cc3)[nH]c3ccc(CN4CCC(C(C)(C)O)CC4)cc32)CC1 [I-a]
- IC50 (EGFR(T790M)): > 1000 nM
- IC50 (FAK): 1 to 100 nM
- IC50 (FLT1): > 1000 nM
- IC50 (FLT4): > 1000 nM
- IC50 (KDR): > 1000 nM
- IC50 (RET): 1 to 100 nM
- IC50 (RET(G691S)): 1 to 100 nM
- IC50 (RET(M918T)): 1 to 100 nM
- IC50 (RET(S 891A)): 1 to 100 nM
- IC50 (RET(Y791F)): 1 to 100 nM
- IC50 (TRKA): < 1 nM
- IC50 (TRKB): 1 to 100 nM
- IC50 (TRKC): 1 to 100 nM

Compound: CC(C)NC(=O)[C@H]1CC[C@@H](n2/c(=N/C(=O)c3cc(F)cc(F)c3)[nH]c3ccc(CN4CCC(C(C)(C)O)CC4)cc32)CC1 [I-b]
- IC50 (EGFR(T790M)): > 1000 nM
- IC50 (FAK): 101 to 500 nM
- IC50 (FLT1): > 1000 nM
- IC50 (FLT3): 1 to 100 nM
- IC50 (FLT4): > 1000 nM
- IC50 (KDR): > 1000 nM
- IC50 (RET): > 1000 nM
- IC50 (RET(G691S)): > 1000 nM
- IC50 (RET(M918T)): > 1000 nM
- IC50 (RET(S 891A)): 101 to 500 nM
- IC50 (RET(Y791F)): > 1000 nM
- IC50 (TRKA): 1 to 100 nM
- IC50 (TRKB): 1 to 100 nM
- IC50 (TRKC): 1 to 100 nM

Compound: tanezumab
- adverse event: headache (NGF; among patients): 9%
- adverse event: paresthesia (NGF; among patients): 7%
- adverse event: upper respiratory infection (NGF; among patients): 7%
- rate of adverse events (NGF; 55% in placebo group): 68%

Continued, values first:

- IC50 [1]: < 50 nM
Compound: CC(C)N(C)C(=O)[C@H]1CC[C@@H](n2/c(=N/C(=O)c3ccc(F)cc3)[nH]c3cnc(CN4CCCCC4)cc32)CC1 [Example 46]

- IC50 [1]: 1000 to 5000 nM
Compound: CCOC(=O)[C@H]1CC[C@@H](n2/c(=N/C(=O)c3cccc(F)c3)[nH]c3cnc(OCCN4CCC(C(C)(C)O)CC4)cc32)CC1 [Example 79]

- IC50 [1]: 1000 to 5000 nM
Compound: CNC(=O)[C@]1(O)CC[C@@H](n2/c(=N/C(=O)c3ccc(F)cc3)[nH]c3cnc(OCCN4CCCCC4)cc32)CC1 [Example 82]

- IC50 [1]: 100 to 1000 nM
Compound: CNC(=O)[C@]1(O)CC[C@H](n2/c(=N/C(=O)c3ccc(F)cc3)[nH]c3cnc(OCCN4CCCCC4)cc32)CC1 [Example 83]

- IC50 [1]: < 50 nM
Compound: COC(=O)[C@H]1CC[C@@H](n2/c(=N/C(=O)c3ccc(F)cc3)[nH]c3cnc(CN4CCOCC4)cc32)CC1 [Example 85]

- IC50 [1]: 50 to 100 nM
Compound: CC(C)NC(=O)[C@H]1CC[C@@H](n2/c(=N/Cc3ccc4ccsc4c3)[nH]c3cnc(OCCN4CCCCC4)cc32)CC1 [Example 87]

- IC50 [1]: 100 to 1000 nM
Compound: O=C(/N=c1\[nH]c2cnc(OCCN3CCCCC3)cc2n1[C@H]1CC[C@@H](C(=O)N2CCNCC2)CC1)c1ccc(F)cc1 [Example 124]

- IC50 [1]: < 50 nM
Compound: CC(C)NC(=O)[C@H]1CC[C@@H](n2/c(=N/C(=O)c3cccc(F)c3)[nH]c3cnc(OCCN4CCC(C(C)(C)O)CC4)cc32)CC1 [Example 130]

- IC50 [1]: < 50 nM
Compound: CC(C)NC(=O)[C@H]1CC[C@@H](n2/c(=N/C(=O)c3ccc(F)cc3)[nH]c3ccc(CN4CCN(S(=O)(=O)O)CC4)cc32)CC1 [Example 172]

- IC50 [1]: < 50 nM
Compound: CC(C)NC(=O)[C@H]1CC[C@@H](n2/c(=N/C(=O)c3ccc(F)cc3)[nH]c3ccc(CN4CCN(C(N)=O)CC4)cc32)CC1 [Example 177]

- IC50 [1]: 50 to 100 nM
Compound: CC(C)C(=O)N[C@H]1CC[C@@H](n2/c(=N/C(=O)c3ccc(F)cc3)[nH]c3cnc(CN4CCC(C(C)(C)O)CC4)cc32)CC1 [Example 227]

- IC50 ([1]; 2 nM enzyme, ATP 40 μM (Km apparent), 90 minutes, mean of three replicates): 50 to 100 nM
Compound: CCCNS(=O)(=O)c1cccc(C(=O)/N=c2\[nH]c3cnc(OCCN4CCCCC4)cc3n2C2CCC(C(N)=O)CC2)c1 (stereo not drawn) [Example 244]
